Each structure is given as a SMILES string. In brackets after ≈: the same amount, converted by molar mass.

One may read the MIC as the least concentration at which growth counts as inhibited. High values mean a need for much substance, low ones inhibition by little substance.

The first assay deals with S. pneumoniae ATCC 49619. In words: Minimal inhibitory concentration (MIC) by microdilution method (CLSI M7-A7). Type of assay: cell-based, Streptococcus pneumoniae. As to conditions: Streptococcus pneumoniae, ATCC49619, cation-adjusted Mueller-Hinton Broth supplemented with 3% (v/v) lysed horse blood. As for the experimental part: Minimal inhibitory concentrations (MICs; mg/l) were determined in cation-adjusted Mueller-Hinton Broth (supplemented with 3% (v/v) lysed horse blood for testing Streptococcus pneumoniae) by a microdilution method following the description given in “Methods for Dilution Antimicrobial Susceptibility Tests for Bacteria that Grow Aerobically”, Approved standard, 7th ed., Clinical and Laboratory Standards Institute (CLSI) Document M7-A7, Wayne, Pa., USA, 2006.
(Broth dilution looks for growth in wells or tubes with falling amounts of substance.)
With `CCNC(=O)Nc1cc2c(CNC)ccc(C)c2cn1` [Example 269, 1-ethyl-3-(8-methyl-5-methylaminomethyl-isoquinolin-3-yl)-urea], inhibition of growth (MIC) required 8 µg/mL (≈ 29.4 µM).
The same measure, in the same setting: to `CCNC(=O)Nc1cc2cccc(Nc3ccc(CC(=O)N(C)C)cc3)c2cn1.Cl` [Example 206, 2-{4-[3-(3-ethyl-ureido)-isoquinolin-8-ylamino]phenyl}-N,N-dimethyl-acetamide hydrochloride] belongs 4 µg/mL; to `CCNC(=O)Nc1cc2cccc(Nc3ccc(C(=O)OC)c(C)c3)c2cn1` [Example 266, 4-[3-(3-ethyl-ureido)-isoquinolin-8-ylamino]-2-methyl-benzoic acid methyl ester], 4 µg/mL (≈ 10.6 µM).
Still for that read-out and setting: to `CCNC(=O)Nc1cc2c(F)c(-c3cccc(NC(C)=O)c3)cc(C)c2cn1` [Example 142, N-{3-[3-(3-ethyl-ureido)-5-fluoro-8-methyl-isoquinolin-6-yl]-phenyl}-acetamide] belongs 0.25 µg/mL (≈ 0.657 µM); to `CCNC(=O)Nc1cc2cc(NCc3cccc(-n4cncn4)c3)cc(C)c2cn1` [Example 187, 1-ethyl-3-[8-methyl-6-(3-[1,2,4]-triazol-1-yl-benzylamino)-isoquinolin-3-yl]-urea], 8 µg/mL (≈ 19.9 µM).
The same measure, in the same setting: the result for `CCNC(=O)Nc1cc2c(-c3ccncc3)ccc(Nc3cccc(C(=O)OC)c3)c2cn1` [Example 220, 3-[3-(3-ethyl-ureido)-5-pyridin-4-yl-isoquinolin-8-ylamino]-benzoic acid methyl ester] reads 16 µg/mL (≈ 36.2 µM); that for `CCNC(=O)Nc1cc2c(CN3CCN(C)CC3)ccc(Nc3cccc(OC)n3)c2cn1` [Example 276, 1-ethyl-3-[8-(6-methoxy-pyridin-2-ylamino)-5-(4-methyl-piperazin-1-ylmethyl)-isoquinolin-3-yl]-urea], 4 µg/mL (≈ 8.9 µM).
On to `CCNC(=O)Nc1cc2c(Nc3cccnc3)ccc(Nc3cccnc3)c2cn1` [Example 268, 1-[5,8-bis-(pyridin-3-ylamino)-isoquinolin-3-yl]-3-ethyl-urea], for which it took 4 µg/mL (≈ 10 µM) to inhibit growth (MIC).
Still for that read-out and setting: to `CCNC(=O)Nc1cc2cccc(Nc3ccc(C(=O)O)c(C)c3)c2cn1` [Example 267, 4-[3-(3-ethyl-ureido)-isoquinolin-8-ylamino]-2-methyl-benzoic acid] belongs 2 µg/mL (≈ 5.49 µM); to `CCNC(=O)Nc1cc2cc(N)cc(C)c2cn1` [Example 54, 1-(6-amino-8-methyl-isoquinolin-3-yl)-3-ethyl-urea], 16 µg/mL (≈ 65.5 µM); to `CCNC(=O)Nc1cc2c(F)ccc(NCc3ccccc3)c2cn1` [Example 56, 1-(8-benzylamino-5-fluoro-isoquinolin-3-yl)-3-ethyl-urea], 8 µg/mL (≈ 23.6 µM).
The same measure, in the same setting: the result for `CCNC(=O)Nc1cc2c(CCC(N)=O)ccc(C)c2cn1` [Example 59, 3-[3-(3-ethyl-ureido)-8-methyl-isoquinolin-5-yl]-propionamide] reads 4 µg/mL (≈ 13.3 µM); that for `CCNC(=O)Nc1cc2c(-c3ccc(C(=O)O)cc3)cccc2cn1` [Example 124, 4-[3-(3-ethyl-ureido)-isoquinolin-5-yl]-benzoic acid], 4 µg/mL (≈ 11.9 µM); that for `CCNC(=O)Nc1cc2c(F)c(-c3cccnc3)cc(-c3cccnc3)c2cn1` [Example 53, 1-ethyl-3-(5-fluoro-6,8-di-pyridin-3-yl-isoquinolin-3-yl)-urea], 8 µg/mL (≈ 20.6 µM).
Still for that read-out and setting: to `CCNC(=O)Nc1cc2c(-c3ccnc(OC)c3)ccc(C)c2cn1` [Example 42, 1-ethyl-3-[5-(2-methoxy-pyridin-4-yl)-8-methyl-isoquinolin-3-yl]-urea] belongs 2 µg/mL (≈ 5.95 µM); to `CCNC(=O)Nc1cc2c(F)c(NCc3ccccc3)cc(-c3cnc(OC)nc3)c2cn1` [Example 110, 1-[6-benzylamino-5-fluoro-8-(2-methoxy-pyrimidin-5-yl)-isoquinolin-3-yl]-3-ethyl-urea], 1 µg/mL (≈ 2.24 µM).
Regarding `CCNC(=O)Nc1cc2cccc(Nc3cccc(C(N)=O)c3)c2cn1.Cl` [Example 254, 3-[3-(3-ethyl-ureido)-isoquinolin-8-ylamino]-benzamide hydrochloride], the MIC turned out to be 1 µg/mL.
Still for that read-out and setting: the result for `CCNC(=O)Nc1cc2cccc(Cn3cc(CO)cn3)c2cn1` [Example 292, 1-ethyl-3-[8-(4-hydroxymethyl-pyrazol-1-ylmethyl)-isoquinolin-3-yl]-urea] reads 8 µg/mL (≈ 24.6 µM); that for `CCNC(=O)Nc1cc2cc(NC(=O)c3ccc(OC)cc3)cc(C)c2cn1` [Example 120, N-[3-(3-ethyl-ureido)-8-methyl-isoquinolin-6-yl]-4-methoxy-benzamide], 0.125 µg/mL (≈ 0.33 µM); that for `CCNC(=O)Nc1cc2c(-c3cccc(CN)c3)ccc(Nc3cccnc3)c2cn1` [Example 232, 1-(5-(3-(aminomethyl)phenyl)-8-(pyridin-3-ylamino)isoquinolin-3-yl)-3-ethylurea], 2 µg/mL (≈ 4.85 µM).
Same read-out and setting: the result for `CCNC(=O)Nc1cc2c(F)ccc(Br)c2cn1` [Example 32, 1-(8-bromo-5-fluoro-isoquinolin-3-yl)-3-ethyl-urea] reads 16 µg/mL (≈ 51.3 µM); that for `CCNC(=O)Nc1cc2cc(-c3cccc(CO)c3)cc(C)c2cn1` [Example 19, 1-ethyl-3-[6-(3-hydroxymethyl-phenyl)-8-methyl-isoquinolin-3-yl]-urea], 1 µg/mL (≈ 2.98 µM); that for `CCNC(=O)Nc1cc2c(-c3ccnc(C)c3)ccc(Nc3cccc(C(=O)NC)c3)c2cn1` [Example 247, 3-[3-(3-ethyl-ureido)-5-(2-methyl-pyridin-4-yl)-isoquinolin-8-ylamino]-N-methyl-benzamide], 0.25 µg/mL (≈ 0.55 µM).
Still for that read-out and setting: to `CCNC(=O)Nc1cc2cccc(CNc3cc(C)nn3C)c2cn1` [Example 191, 1-{8-[(2,5-dimethyl-2H-pyrazol-3-ylamino)-methyl]-isoquinolin-3-yl}-3-ethyl-urea] belongs 8 µg/mL (≈ 23.6 µM); to `CCNC(=O)Nc1cc2c(F)c(-c3cccc(NC(C)=O)c3)cc(-c3cccnc3)c2cn1` [Example 113, N-{3-[3-(3-ethyl-ureido)-5-fluoro-8-pyridin-3-yl-isoquinolin-6-yl]-phenyl}-acetamide], 1 µg/mL (≈ 2.25 µM).
In turn, `CCNC(=O)Nc1cc2c(-c3cscn3)ccc(C)c2cn1.Cl` [Example 285, 1-ethyl-3-(8-methyl-5-thiazol-4-yl-isoquinolin-3-yl)-urea hydrochloride] showed an MIC of 2 µg/mL.
Regarding `CCNC(=O)Nc1cc2cccc(NC(=O)c3ccccc3)c2cn1` [Example 70, N-[3-(3-ethyl-ureido)-isoquinolin-8-yl]-benzamide], the MIC was found to be 16 µg/mL (≈ 47.8 µM).
On the same count and under the same terms, to `CCNC(=O)Nc1cc2cc(-c3cncc(C)c3)cc(C)c2cn1` [Example 39, 1-ethyl-3-[8-methyl-6-(5-methyl-pyridin-3-yl)-isoquinolin-3-yl]-urea] belongs 1 µg/mL (≈ 3.12 µM); to `CCNC(=O)Nc1cc2c(F)ccc(NC(=O)c3ccccc3)c2cn1` [Example 51, N-[3-(3-ethyl-ureido)-5-fluoro-isoquinolin-8-yl]-benzamide], 1 µg/mL (≈ 2.84 µM).
Still for that read-out and setting: the result for `CCNC(=O)Nc1cc2cc(-c3cccnc3)cc(C)c2cn1` [Example 16, 1-ethyl-3-(8-methyl-6-pyridin-3-yl-isoquinolin-3-yl)-urea] reads 2 µg/mL (≈ 6.53 µM); that for `CCNC(=O)Nc1cc2cc(NC(=O)c3ccccc3)ccc2cn1` [Example 52, N-[3-(3-ethyl-ureido)-isoquinolin-6-yl]-benzamide], 2 µg/mL (≈ 5.98 µM).
Same read-out and setting: to `CCNC(=O)Nc1cc2c(F)c(-c3cnc4ccccc4c3)cc(-c3cnc4ccccc4c3)c2cn1` [Example 112, 1-ethyl-3-(5-fluoro-6,8-di-quinolin-3-yl-isoquinolin-3-yl)-urea] belongs 0.5 µg/mL (≈ 1.03 µM); to `CCNC(=O)Nc1cc2cccc(CNc3cccnc3)c2cn1` [Example 190, 1-ethyl-3-[8-(pyridin-3-ylaminomethyl)-isoquinolin-3-yl]-urea], 1 µg/mL (≈ 3.11 µM).
Take `CCNC(=O)Nc1cc2cc(-c3ccoc3)cc(C)c2cn1` [Example 14, 1-ethyl-3-(6-furan-3-yl-8-methyl-isoquinolin-3-yl)-urea]: the MIC is 4 µg/mL (≈ 13.5 µM).
On the same count and under the same terms, to `CCNC(=O)Nc1cc2cc(NCC(C)C)cc(C)c2cn1.Cl` [Example 136, 1-ethyl-3-(6-isobutylamino-8-methyl-isoquinolin-3-yl)-urea hydrochloride] belongs 16 µg/mL; to `CCNC(=O)Nc1cc2cccc(Nc3cccc(C(=O)OC)c3)c2cn1` [Example 176, 3-[3-(3-ethyl-ureido)-isoquinolin-8-ylamino]-benzoic acid methyl ester], 2 µg/mL (≈ 5.49 µM); to `CCNC(=O)Nc1cc2cccc(CNc3cc(C)on3)c2cn1.Cl` [Example 301, 1-ethyl-3-{8-[(5-methyl-isoxazol-3-ylamino)-methyl]-isoquinolin-3-yl}-urea hydrochloride], 4 µg/mL.
`CCNC(=O)Nc1cc2c(-c3cncc(F)c3)ccc(C)c2cn1` [Example 9, 1-ethyl-3-[5-(5-fluoro-pyridin-3-yl)-8-methyl-isoquinolin-3-yl]-urea] gave a minimum inhibitory concentration (MIC) of 2 µg/mL (≈ 6.17 µM).
The same measure, in the same setting: the result for `CCNC(=O)Nc1cc2cc(-c3ccc(S(N)(=O)=O)cc3)cc(C)c2cn1` [Example 38, 4-[3-(3-ethyl-ureido)-8-methyl-isoquinolin-6-yl]-benzenesulfonamide] reads 1 µg/mL (≈ 2.6 µM); that for `CCNC(=O)Nc1cc2cc(NCC3CC3)cc(C)c2cn1.Cl` [Example 133, 1-{6-[(cyclopropylmethyl)-amino]-8-methyl-isoquinolin-3-yl}-3-ethyl-urea hydrochloride], 16 µg/mL.

Staying with this assay, now noted: cation-adjusted Mueller-Hinton Broth supplemented with 3% (v/v) lysed horse blood.
Regarding `CCNC(=O)Nc1cc2cc(C(NC(C)=O)c3ccccc3)cc(C)c2cn1` (stereo not drawn) [Example 17, N-{1-[3-(3-ethyl-ureido)-8-methyl-isoquinolin-6-yl]-benzyl}-acetamide], the “MIC for S. pneumoniae ATCC 49619” value came to 1 mg/L.
Still for that read-out and setting: the result for `CCNC(=O)Nc1cc2c(CNC)ccc(Nc3cccc(OC)n3)c2cn1` [Example 271, 1-ethyl-3-{8-[(6-methoxy-pyridin)-2-ylamino]-5-[(methylamino)methyl]-isoquinolin-3-yl}-urea] reads 4 mg/L.

Values taken from patent US20130096119A1, “Isoquinolin-3-Ylurea Derivatives” (priority 2010, published 2013).
